Measured values from US7687481B2, “Cannabinoid receptor antagonists/inverse agonists useful for treating obesity” (Jenrin Discovery, Inc., priority 2006, dated 2010).
Where two headings read alike, the source gives them in different places.

Tests used:
[1] = target: T1, human cannabinoid CB1 receptor (Homo sapiens, UniProt P21554); test: CB1 receptor affinity, [3H]CP-55,940 radioligand binding to CHO cell membranes
T1 construct: expressed in transfected cells; host or cells: Chinese hamster ovary (CHO) cells, stably transfected; membrane preparation
Description: CB1 receptor affinities can be determined using membrane preparations of Chinese hamster ovary (CHO) cells in which the human cannabinoid CB1 receptor is stably transfected (Biochem J. 1991, 279, 129-134) in conjunction with [3H]CP-55,940 as radioligand. After incubation of a freshly prepared cell membrane preparation with the [3H]-radioligand, with or without addition of test compound, separation of bound and free ligand is performed by filtration over glass fiber filters. Radioactivity on the filter is measured by liquid scintillation counting. The IC50 values can be determined from at least three independent measurements.
Tables A-E below describe selected examples of the present invention that have been synthesized and tested. The activities of these compounds are as follows: • +=an IC50 of ≦10 μM; • ++=IC50 of ≦1 μM; and, • +++=an IC50 ≦100 nM.

[2] = usually not maintained; cited from earlier work
[3] = cited from earlier work
[4] = Table A, read-out: CB1 Receptor Activity
[5] = Table B, read-out: CB1 Receptor Activity
[6] = Table C, read-out: CB1 Receptor Activity
[7] = Table E, read-out: CB1 Receptor Activity

T1 sequence (P21554 whole entry): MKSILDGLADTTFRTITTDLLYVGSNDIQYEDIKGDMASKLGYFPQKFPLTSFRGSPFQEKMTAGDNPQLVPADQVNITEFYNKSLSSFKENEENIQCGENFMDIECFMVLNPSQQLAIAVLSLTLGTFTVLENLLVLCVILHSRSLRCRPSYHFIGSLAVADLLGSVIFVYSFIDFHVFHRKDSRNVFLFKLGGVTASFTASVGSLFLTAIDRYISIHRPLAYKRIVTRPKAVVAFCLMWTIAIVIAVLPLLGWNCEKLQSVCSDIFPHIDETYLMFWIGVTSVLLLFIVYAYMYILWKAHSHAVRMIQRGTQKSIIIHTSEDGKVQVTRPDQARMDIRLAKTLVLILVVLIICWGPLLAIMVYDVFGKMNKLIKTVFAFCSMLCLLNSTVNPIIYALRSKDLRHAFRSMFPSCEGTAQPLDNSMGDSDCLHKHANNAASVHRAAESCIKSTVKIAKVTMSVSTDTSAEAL

Compound | IC50 [1, 4] [nM] | IC50 [1, 5] [nM] | further results
CCOC(=O)CNC(=O)c1nn(-c2ccc(Cl)cc2Cl)c(-c2ccc(Cl)cc2)c1C [Example A-1] | < 10000 | – | –
CCOC(=O)C(Cc1ccccc1)NC(=O)c1nn(-c2ccc(Cl)cc2Cl)c(-c2ccc(Cl)cc2)c1C (stereo not shown) [Example A-2] | < 1000 | – | –
CCOC(=O)CCNC(=O)c1nn(-c2ccc(Cl)cc2Cl)c(-c2ccc(Cl)cc2)c1C [Example A-3] | < 10000 | – | –
Cc1c(C(=O)NC(Cc2ccccc2)C(=O)O)nn(-c2ccc(Cl)cc2Cl)c1-c1ccc(Cl)cc1 (stereo not shown) [Example A-4] | < 10000 | – | –
CCOC(=O)CCCNC(=O)c1nn(-c2ccc(Cl)cc2Cl)c(-c2ccc(Cl)cc2)c1C [Example A-5] | < 10000 | – | –
CCOC(=O)CC(C)NC(=O)c1nn(-c2ccc(Cl)cc2Cl)c(-c2ccc(Cl)cc2)c1C (stereo not shown) [Example A-6] | < 1000 | – | –
CCOC(=O)C(C)NC(=O)c1nn(-c2ccc(Cl)cc2Cl)c(-c2ccc(Cl)cc2)c1C (stereo not shown) [Example A-7] | < 1000 | – | –
CCOC(=O)C(CC(C)C)NC(=O)c1nn(-c2ccc(Cl)cc2Cl)c(-c2ccc(Cl)cc2)c1C (stereo not shown) [Example A-8] | – | – | IC50 [1]: < 100 nM
Cc1c(C(=O)NC(CC(C)C)C(=O)O)nn(-c2ccc(Cl)cc2Cl)c1-c1ccc(Cl)cc1 (stereo not shown) [Example A-9] | < 1000 | – | –
CCOC(=O)C(NC(=O)c1nn(-c2ccc(Cl)cc2Cl)c(-c2ccc(Cl)cc2)c1C)C(C)CC (stereo not shown) [Example A-10] | < 100 | – | –
CCOC(=O)C(NC(=O)c1nn(-c2ccc(Cl)cc2Cl)c(-c2ccc(Cl)cc2)c1C)C(C)(C)C (stereo not shown) [Example A-11] | – | – | IC50 [1]: < 100 nM
Cc1c(C(=O)NC(C(=O)O)C(C)(C)C)nn(-c2ccc(Cl)cc2Cl)c1-c1ccc(Cl)cc1 (stereo not shown) [Example A-12] | < 100 | – | –
Cc1c(C(=O)NCCC(N)=O)nn(-c2ccc(Cl)cc2Cl)c1-c1ccc(Cl)cc1 [Example B-1] | – | < 10000 | –
Cc1c(C(=O)NC(C)CC(N)=O)nn(-c2ccc(Cl)cc2Cl)c1-c1ccc(Cl)cc1 (stereo not shown) [Example B-2] | – | < 10000 | –
Cc1c(C(=O)NC(CC(C)C)C(N)=O)nn(-c2ccc(Cl)cc2Cl)c1-c1ccc(Cl)cc1 (stereo not shown) [Example B-3] | – | < 1000 | –
CCC(C)C(NC(=O)c1nn(-c2ccc(Cl)cc2Cl)c(-c2ccc(Cl)cc2)c1C)C(N)=O (stereo not shown) [Example B-4] | – | < 100 | –
Cc1c(C(=O)NC(Cc2ccccc2)C(N)=O)nn(-c2ccc(Cl)cc2Cl)c1-c1ccc(Cl)cc1 (stereo not shown) [Example B-5] | – | < 100 | –
Cc1c(C(=O)NCc2cccc(C(N)=O)c2)nn(-c2ccc(Cl)cc2Cl)c1-c1ccc(Cl)cc1 [Example B-6] | – | < 1000 | –
Cc1c(C(=O)NCc2ccc(C(N)=O)cc2)nn(-c2ccc(Cl)cc2Cl)c1-c1ccc(Cl)cc1 [Example B-7] | – | < 1000 | –
Cc1c(C(=O)NCc2cccc(C(=N)N)c2)nn(-c2ccc(Cl)cc2Cl)c1-c1ccc(Cl)cc1 [Example B-8] | – | < 1000 | –
Cc1c(C(=O)NCc2ccc(C(=N)N)cc2)nn(-c2ccc(Cl)cc2Cl)c1-c1ccc(Cl)cc1 [Example B-9] | – | < 10000 | –
Cc1c(C(=O)NC(C(N)=O)C(C)(C)C)nn(-c2ccc(Cl)cc2Cl)c1-c1ccc(Cl)cc1 (stereo not shown) [Example B-10] | – | – | IC50 [1]: < 100 nM
CCOC(=O)C1CCCN(NC(=O)c2nn(-c3ccc(Cl)cc3Cl)c(-c3ccc(Cl)cc3)c2C)C1 (stereo not shown) [Example C-1] | – | – | IC50 [1, 6]: < 1000 nM
CCOC(=O)C1CCN(NC(=O)c2nn(-c3ccc(Cl)cc3Cl)c(-c3ccc(Cl)cc3)c2C)CC1 [Example C-2] | – | – | IC50 [1, 6]: < 1000 nM
Cc1c(C(=O)NN2CCCC(C(N)=O)C2)nn(-c2ccc(Cl)cc2Cl)c1-c1ccc(Cl)cc1 (stereo not shown) [Example C-3] | – | – | IC50 [1, 6]: < 100 nM
CCOC(=O)C1CCC(NC(=O)c2nn(-c3ccc(Cl)cc3Cl)c(-c3ccc(Cl)cc3)c2C)CC1 (stereo not shown) [Example E-1] | – | – | IC50 [1, 7]: < 10000 nM
Cc1c(C(=O)NC2CCC(C(N)=O)CC2)nn(-c2ccc(Cl)cc2Cl)c1-c1ccc(Cl)cc1 (stereo not shown) [Example E-2] | – | – | IC50 [1, 7]: < 10000 nM
CCCCCCCCCCC[C@@H](C[C@@H]1OC(=O)[C@H]1CCCCCC)OC(=O)[C@H](CC(C)C)NC=O [orlistat] | – | – | initial weight loss compared to placebo [2]: approximately 5%
Cc1c(C(=O)NN2CCCCC2)nn(-c2ccc(Cl)cc2Cl)c1-c1ccc(Cl)cc1 [rimonabant] | – | – | side effects ([3]; dose-related, most pronounced at the most efficacious weight-reducing dose): psychiatric and nervous system side effects; weight loss ([3]; obese patients): clinically meaningful weight loss
CC(C)CC(N(C)C)C1(c2ccc(Cl)cc2)CCC1 (stereo not shown) [sibutramine] | – | – | initial weight loss compared to placebo [2]: approximately 5%
